Assay results: patent publication US7371766B2, “Curcumin analogs with anti-tumor and anti-angiogenic properties” (Emory University, priority 1999, dated 2008)

How the values were obtained:
[1] = tested on: Sixty human tumor cell lines; details: NCI Anti-Tumor Screen, several cell types
CCRF-CEM = experiment: cells; details: Homo sapiens, 48 h
HL-60 (TB) = experiment: cells; details: Homo sapiens, HL-60, 48 h
K-562 = experiment: cells; details: Homo sapiens, K562, 48 h
HOP-62 = experiment: cells; details: Homo sapiens, HOP-62, 48 h
NCI-H226 = experiment: cells; details: Homo sapiens, NCI-H226, 48 h
NCI-H23 = experiment: cells; details: Homo sapiens, NCI-H23, 48 h
NCI-H460 = experiment: cells; details: Homo sapiens, NCI-H460, 48 h
HCC-2998 = experiment: cells; details: Homo sapiens, HCC 2998, 48 h
HCT-116 = experiment: cells; details: Homo sapiens, HCT-116, 48 h
HT29 = experiment: cells; details: Homo sapiens, HT-29, 48 h
KM12 = experiment: cells; details: Homo sapiens, KM12, 48 h
SW-620 = experiment: cells; details: Homo sapiens, SW-620, 48 h
SF-295 = experiment: cells; details: Homo sapiens, SF-295, 48 h
SF-539 = experiment: cells; details: Homo sapiens, SF-539, 48 h
U251 = experiment: cells; details: Homo sapiens, U-251, 48 h
LOX IMVI = experiment: cells; details: Homo sapiens, 48 h
MALME-3M = experiment: cells; details: Homo sapiens, 48 h
UACC-62 = experiment: cells; details: Homo sapiens, UACC-62, 48 h
OVCAR-3 = experiment: cells; details: Homo sapiens, OVCAR-3, 48 h
786-0 = experiment: cells; details: Homo sapiens, 786-0, 48 h
A498 = experiment: cells; details: Homo sapiens, A498, 48 h
CAKI-1 = experiment: cells; details: Homo sapiens, CAKI-1, 48 h
DU-145 = experiment: cells; details: Homo sapiens, DU-145, 48 h
NCI/ADR-RES = experiment: cells; details: Homo sapiens, 48 h
MDA-MB-231 = experiment: cells; details: Homo sapiens, MDA-MB-231, 48 h
MDA-MB-435 = experiment: cells; details: Homo sapiens, MDA-MB-435, 48 h
MDA-N = experiment: cells; details: Homo sapiens, 48 h
[2] = tested on: Vascular Endothelial Growth Factor (VEGF) production by human melanoma cell line RPMI-7951; experiment: VEGF ELISA, RPMI-7951; details: for VEGF ELISA / VEGF: RPMI-7951; for VEGF ELISA: DMSO control 3713
Description: RPMI-795 1, MDA-MB-231 and MDA-MB-435 cell lines were cultured in MEM-alpha medium (GIBCO-BRL, Long Island, N.Y.) containing 10% fetal bovine serum (RPMI-7951, MDA-MB-231) or 5% FBS (MDA-MB-435) at 37° C. and under 5% CO2/95% air. […] The cells were cultured in 48 well plates in all of the experiments described.
A VEGF enzyme-linked immunosorbent assay (ELISA) was utilized to determine the effect of the compounds of the present invention on VEGF production of a variety of human cancer cell lines. For the VEGF assay, cells were plated at a concentration of 80,000 cells/well and cultured overnight. Compounds or vehicle (DMSO 0.1%) were then added and the plates were incubated for 72 hours. Supernatant was then collected from each well and frozen in a −80° C. freezer until needed. Cell viability was determined by Neutral Red Assay. VEGF ELISA Kit (R & D, Minneapolis, Minn.) was used to determine the amount of VEGF in the culture supernatants. The ELISA was carried out according to the manufacturer's procedure.

[3] = read-out: Median Growth Inhibitory Concentration (GI50)
[4] = read-out: Median Lethal Concentration (LC50)
[5] = Homo sapiens, RPMI-7951, 72 h, read-out: VEGF

## O=C(C=Cc1ccc(F)cc1F)C=Cc1ccc(F)cc1F [EF9, 1,5-Bis(2,4-difluorophenyl)penta-1,4-dien-3-one]
[1]
  LC50 compared with CISPLATIN, in words: lower LC50 than the chemotherapeutic agent CISPLATIN for several cell types
CCRF-CEM; [3]
  GI50: 3.1 µM
CCRF-CEM; [4]
  CC50: > 100 µM
HL-60 (TB); [3]
  GI50: 4.2 µM
HL-60 (TB); [4]
  CC50: > 100 µM
K-562; [3]
  GI50: 3.5 µM
K-562; [4]
  CC50: > 100 µM
HOP-62; [3]
  GI50: 16.6 µM
HOP-62; [4]
  CC50: 60.7 µM
NCI-H226; [3]
  GI50: 24.3 µM
NCI-H226; [4]
  CC50: > 100 µM
NCI-H23; [3]
  GI50: 12.3 µM
NCI-H23; [4]
  CC50: 62.3 µM
NCI-H460; [3]
  GI50: 12.7 µM
NCI-H460; [4]
  CC50: 60.9 µM
HCC-2998; [3]
  GI50: 3.3 µM
HCC-2998; [4]
  CC50: 32.2 µM
HCT-116; [3]
  GI50: 1.9 µM
HCT-116; [4]
  CC50: 7.7 µM
HT29; [3]
  GI50: 4.1 µM
HT29; [4]
  CC50: 41.9 µM
KM12; [3]
  GI50: 2.3 µM
KM12; [4]
  CC50: 14.6 µM
SW-620; [3]
  GI50: 3.2 µM
SW-620; [4]
  CC50: 62.6 µM
SF-295; [3]
  GI50: 14.2 µM
SF-295; [4]
  CC50: 58.8 µM
SF-539; [3]
  GI50: 2.6 µM
SF-539; [4]
  CC50: 23.1 µM
U251; [3]
  GI50: 2.1 µM
U251; [4]
  CC50: 12.9 µM
LOX IMVI; [3]
  GI50: 3.4 µM
LOX IMVI; [4]
  CC50: 67.6 µM
MALME-3M; [3]
  GI50: 17.8 µM
MALME-3M; [4]
  CC50: 73.4 µM
UACC-62; [3]
  GI50: 13.9 µM
UACC-62; [4]
  CC50: 52.8 µM
OVCAR-3; [3]
  GI50: 14.1 µM
OVCAR-3; [4]
  CC50: 52.1 µM
786-0; [3]
  GI50: 3.5 µM
786-0; [4]
  CC50: 49.6 µM
A498; [3]
  GI50: 2.4 µM
A498; [4]
  CC50: 23 µM
CAKI-1; [3]
  GI50: 15 µM
CAKI-1; [4]
  CC50: 93.4 µM
DU-145; [3]
  GI50: 2.1 µM
DU-145; [4]
  CC50: 29 µM
NCI/ADR-RES; [3]
  GI50: 30.7 µM
NCI/ADR-RES; [4]
  CC50: > 100 µM
MDA-MB-231; [3]
  GI50: 14.1 µM
MDA-MB-231; [4]
  CC50: 57.7 µM
MDA-MB-435; [3]
  GI50: 3.2 µM
MDA-MB-435; [4]
  CC50: 35.9 µM
MDA-N; [3]
  GI50: 2.9 µM
MDA-N; [4]
  CC50: 33.2 µM
[2]; [5]
  activity at 5 µM: 46%
  activity at 20 µM: 14%
[2]; 5 μM
  VEGF ELISA: 1868 pg/ml/well
[2]; 5 μM, DMSO control 4197 (EF-25: 1045)
  VEGF: 1925 pg/mL
[2]; 20 μM
  VEGF ELISA: 705 pg/ml/well
[2]; 20 μM, DMSO control 4197
  VEGF: 595 pg/mL
